Data on 22 compounds can be found in patent US20250129101A1, “Compound, Pharmaceutical Composition Comprising the Same and Method for Treating Cancer Using the Same” (NATIONAL TSING HUA UNIVERSITY, priority 2023, published 2025).

By EC50 is commonly meant the concentration needed to bring the measured effect to its halfway point. The low end stands for a more potent agent, the high end for a less potent agent. A word on the IC50: it is the concentration needed to halve the response being measured. Read a high IC50 as weaker potency.

Some results are limits rather than exact numbers.

For one data set, the target named is T1, KIF2C (Homo sapiens, UniProt Q99661).
T1 construct: KIF2C (216-598 a.a.); 6xHis (C); made in house; host or cells: E. coli BL21 (DE3), pET-28a
Put plainly: In vitro validation: KIF2C kinesin activity, malachite green-based phosphate colorimetric assay. In kind it is biochemical. The following applies: concentration that inhibits 50% of KIF2C activity. As to the method:
(§1) The in vitro validation was performed by measuring KIF2C kinesin activity using malachite green-based phosphate colorimetric assay (BioVision). […] The microtubules from porcine brain tubulin (Cytoskeleton) or purified from HEK293 cells in Free-style medium (293Fs) were dissolved in the BRB80 buffer (80 mM PIPES pH 6.8, 1 mM EGTA, 1 mM MgCl2, 1 mM GTP, 1 mM DTT, and 10% DMSO) at 37° C. for 2 hr. Phosphates released from kinesin-mediated ATP hydrolysis was measured by adding 30 μL of the phosphate colorimetric reagent (BioVision), incubated for 10 min, and then measured with absorbance at 650 nm. […] The cell validation was performed by measuring cytotoxicity in MDA-MB-231 cells. The cells were cultured in a 96-well plate at a confluence of 2000 cells/well with indicates compounds for specific days. When the time was up, the culture medium in the plate was aspirated and replaced with a prepared CellTiter-Glo reagent (Promega)/DMEM mixture (1:1 mix of CellTiter-Glo reagent and serum-supplemented DMEM). After incubation for 10 min, the luminescence was measured with an ELISA plate reader to determine the cell viability.
In vitro kinesin activity was measured using malachite green-based phosphate colorimetric assay (BioVision). […] The microtubules from porcine brain tubulin (Cytoskeleton) or purified from HEK293 cells in Free-style medium (293Fs) were dissolved in the BRB80 buffer (80 mM PIPES pH 6.8, 1 mM EGTA, 1 mM MgCl2, 1 mM GTP, 1 mM DTT, and 10% DMSO) at 37° C. for 2 hr. Phosphates released from kinesin-mediated ATP hydrolysis was measured by adding 30 μL of the phosphate colorimetric reagent (BioVision), incubated for 10 min, and then measured with absorbance at 650 nm.
Constructs of sN+M regions of KIF2C (216-598 a.a.), KIF2A (181-562 a.a.) and KIF2B (171-553 a.a.) with C-terminal 6×His tag were subcloned into pET-28a vector and expressed in BL21 (DE3) E. coli cells (Novartis) cultured in Luria-Bertani medium supplemented with 50 ug/mL kanamycin at 37° C. After induction with 0.8 mM IPTG for 18 hr at 20° C., the cells were pelleted by centrifugation at 6000 rpm for 30 min at 10° C. The collected pellets were resuspended in 30 mL of buffer A (20 mM Tris-HCl pH 7.5, 500 mM NaCl, 10 mM imidazole, 1% CHAPS, and 1 mM PMSF) and next subjected to a high-pressure homogenizer (EmulsiFlex-C3) for cell lysis. After removing the cell debris by centrifugation at 13000 rpm for 30 min at 10° C., the recombinant Kinesin-13 in the supernatant was purified using nickel affinity chromatography. Firstly, the supernatant was applied to the Ni-NTA column (GE Healthcare) pre-equilibrated with buffer A. Secondly, the column was washed with 10× column volumes of buffer A to remove the unwanted proteins. The washed column was then eluted with 10× column volumes of buffer containing increasing concentrations of imidazole (40, 100, 300, 1000 mM), and the majority of the recombinant Kinesin-13 protein was eventually obtained in a fraction of 300 mM imidazole. The fractions containing the recombinant Kinesin-13 were subsequently concentrated in the buffer B (20 mM Tris-HCl pH 7.5, 10 mM imidazole, 50 mM NaCl, 2 mM DTT) using an Amicon® Ultra filter (Millipore) and subjected to cation exchange column (Capto S, GE Healthcare) for further purification. The recombinant Kinesin-13 was then eluted in elution buffer (20 mM Tris-HCl pH 7.5 and 2 mM DTT) containing 400 mM of NaCl and stored at −80° C. for long-term storage.

For the next data set, the system named is MDA-MB-231 cells. Description: Cell validation: cytotoxicity in MDA-MB-231 cells (CellTiter-Glo). The data set is classed as cell-based. The following applies: for Cell validation (IC50) / IC50: cytotoxicity in MDA-MB-231 cells; for IC50: Homo sapiens. Here is the method: as §1
The cancer cells were cultured in a 96-well plate at a confluence of 1000-2000 cells/well with indicated drugs for specific days. When the time was up, the culture medium in the plate was aspirated and replaced with a prepared CellTiter-Glo reagent/DMEM mixture (1:1 mix of CellTiter-Glo reagent and serum-supplemented DMEM). After incubation for 10 min, the luminescence (proportional to the number of living cells) was measured with an ELISA plate reader to determine the cell viability.
(Cellular ATP, detected with luciferase, serves as a proxy for viable cell number.)

T1 sequence (Q99661 216-598): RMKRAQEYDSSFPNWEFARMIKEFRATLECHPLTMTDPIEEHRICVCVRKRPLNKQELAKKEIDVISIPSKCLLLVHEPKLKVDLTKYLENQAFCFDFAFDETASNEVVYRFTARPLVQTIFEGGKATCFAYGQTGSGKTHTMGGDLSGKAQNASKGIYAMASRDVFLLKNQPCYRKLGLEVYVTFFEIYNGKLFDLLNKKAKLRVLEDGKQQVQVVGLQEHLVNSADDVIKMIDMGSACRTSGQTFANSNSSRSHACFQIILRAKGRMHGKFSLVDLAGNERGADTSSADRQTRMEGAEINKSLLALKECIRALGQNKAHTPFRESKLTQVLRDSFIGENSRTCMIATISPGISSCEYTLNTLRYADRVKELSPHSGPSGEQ

Take `CC1=C(C(=O)OC(C)C)C(c2ccc(F)cc2)n2c(s/c(=C\c3ccc(OCC(=O)N4CCN(C)CC4)cc3)c2=O)=N1` (stereo not drawn) [32S0 (36), isopropyl (Z)-5-(4-fluorophenyl)-7-methyl-2-(4-(2-(4-methylpiperazin-1-yl)-2-oxoethoxy)benzylidene)-3-oxo-2,3-dihydro-5H-thiazolo[3,2-a]pyrimidine-6-carboxylate]: on KIF2C, the concentration for a half-maximal effect (EC50) was above 100 µM. Further, in the data set on MDA-MB-231 cells, the “Cell validation (IC50)” value is “+ +”.

Take `CCOC(=O)C1=C(C)N=c2s/c(=C\c3ccc(OCC(=O)O)cc3)c(=O)n2C1c1ccc(Cl)cc1` (stereo not drawn) [12S0 (79), (Z)-2-(4-((5-(4-chlorophenyl)-6-(ethoxycarbonyl)-7-methyl-3-oxo-5H-thiazolo[3,2-a]pyrimidin-2(3H)-ylidene)methyl)phenoxy)acetic acid]: at KIF2C, the EC50 was below 20 µM. In the data set on MDA-MB-231 cells, this compound displayed an IC50 above 50 µM.

Consider `CCOC(=O)C1=C(C)N=c2s/c(=C\c3ccc(OCC(=O)N4CCN(CC)CC4)cc3)c(=O)n2C1c1ccc(N(C)C)cc1` (stereo not drawn) [Compound 146], for which the concentration for a half-maximal effect (EC50) at KIF2C is below 50 µM. In the data set with MDA-MB-231 cells, this compound showed an IC50 of 20 to 50 µM.

On KIF2C, `CC1=C(C(=O)O)C(c2ccc(Cl)cc2)n2c(s/c(=C\c3ccc(OCC(=O)N4CCN(C)CC4)cc3)c2=O)=N1` (stereo not drawn) [Compound 137] had an EC50 below 50 µM. For the same compound, the IC50 in the data set with MDA-MB-231 cells is above 50 µM.

Compound `CC1=C(C(=O)CC(C)C)C(c2ccc(Cl)cc2)n2c(s/c(=C\c3ccc(OCC(=O)N4CCN(C)CC4)cc3)c2=O)=N1` (stereo not drawn) [27S0 (98), (Z)-5-(4-chlorophenyl)-7-methyl-6-(3-methylbutanoyl)-2-(4-(2-(4-methylpiperazin-1-yl)-2-oxoethoxy)benzylidene)-5H-thiazolo[3,2-a]pyrimidin-3(2H)-one] registered a 50% effective concentration (EC50) at KIF2C of 50 to 100 µM. The “Cell validation (IC50)” value in the data set on MDA-MB-231 cells is “+ +”.

Regarding `CC1=C(C(=O)OC(C)(C)C)C(c2ccc(Cl)cc2)n2c(s/c(=C\c3ccc(OCC(=O)O)cc3)c2=O)=N1` (stereo not drawn) [53S0 (80), (Z)-2-(4-((6-(tert-butoxycarbonyl)-5-(4-chlorophenyl)-7-methyl-3-oxo-5H-thiazolo[3,2-a]pyrimidin-2(3H)-ylidene)methyl)phenoxy)acetic acid], the EC50 on KIF2C lay in the range of 50 to 100 µM. In addition, the IC50 in the data set on MDA-MB-231 cells is above 50 µM.

With `CC1=C(C(=O)OC(C)C)C(c2ccc(Cl)cc2)n2c(s/c(=C\c3ccc(OCC(=O)N4CCC(N(C)C)CC4)cc3)c2=O)=N1` (stereo not drawn) [Compound 139], at KIF2C, the EC50 lay in the range of 50 to 100 µM. Also, in the data set with MDA-MB-231 cells, the IC50 fell in the range of 20 to 50 µM.

In turn, `CC1=C(C(=O)OC(C)C)C(c2ccc(Cl)cc2)n2c(s/c(=C\c3ccc(OCC(=O)NS(=O)(=O)C(F)(F)F)cc3)c2=O)=N1` (stereo not drawn) [56S0 (121), isopropyl (Z)-5-(4-chlorophenyl)-7-methyl-3-oxo-2-(4-(2-oxo-2-((trifluoromethyl)sulfonamido)ethoxy)benzylidene)-2,3-dihydro-5H-thiazolo[3,2-a]pyrimidine-6-carboxylate] had an EC50 on KIF2C above 100 µM. The compound also registered an IC50 in the data set with MDA-MB-231 cells above 50 µM.

For the compound `CCN1CCN(C(=O)COc2ccc(/C=c3\sc4n(c3=O)C(c3ccc(N(C)C)cc3)C(C(=O)O)=C(C)N=4)cc2)CC1` (stereo not drawn) [Compound 145], the EC50 on KIF2C was below 50 µM. The compound further returned an IC50 in the data set on MDA-MB-231 cells above 50 µM.

`CC1=C(C(=O)OC(C)(C)C)C(c2ccc(Cl)cc2)n2c(s/c(=C\c3ccc(OCC(=O)N4CCN(C)CC4)cc3)c2=O)=N1` (stereo not drawn) [25S0 (95)] had an EC50 at KIF2C above 100 µM. In the data set on MDA-MB-231 cells, the “Cell validation (IC50)” value is “+ +”.

On KIF2C, `CCN1CCN(C(=O)COc2ccc(/C=c3\sc4n(c3=O)C(c3ccc(Cl)cc3)C(C(=O)OC(C)C)=C(C)N=4)cc2)CC1` (stereo not drawn) [Compound 13S0] returned an EC50 of 50 to 100 µM. Besides, the “cytotoxicity on MDA-MB-231 cells (in words)” value in the data set on MDA-MB-231 cells (72 hr) is “showed cytotoxicity”. Further, in the data set on MDA-MB-231 cells, the “Cell validation (IC50)” value is listed as “+ +”.

Regarding `CC1=C(C(=O)OC(C)C)C(c2ccc(Cl)cc2)n2c(s/c(=C\c3ccc(OCC(=O)NC4CCN(C)CC4)cc3)c2=O)=N1` (stereo not drawn) [Compound 136], the EC50 at KIF2C was above 100 µM. In the data set on MDA-MB-231 cells, this compound gave an IC50 above 50 µM.

Consider `CC1=C(C(=O)OC(C)C)C(c2ccc(Cl)cc2)n2c(s/c(=C\c3ccc(OCC(=O)NCC4CCN(C)CC4)cc3)c2=O)=N1` (stereo not drawn) [Compound 138], for which, on KIF2C, the EC50 lay in the range of 50 to 100 µM. The IC50 in the data set with MDA-MB-231 cells fell in the range of 20 to 50 µM.

On KIF2C, `CCOC(=O)COc1ccc(/C=c2\sc3n(c2=O)C(c2ccc(Cl)cc2)C(C(=O)OC(C)C)=C(C)N=3)cc1` (stereo not drawn) [4S0 (26), 1-methylethyl 5-(4-chlorophenyl)-2-[[4-(2-ethoxy-2-oxoethoxy)phenyl]methylene]-2,3-dihydro-7-methyl-3-oxo-5H-thiazolo[3,2-a]pyrimidine-6-carboxylate] gave an EC50 above 100 µM. In the data set on MDA-MB-231 cells, this compound registered a 50% inhibitory concentration (IC50) above 50 µM.

At KIF2C, `CCC1=C(C(=O)OC(C)C)C(c2ccc(Cl)cc2)n2c(s/c(=C\c3ccc(OCC(=O)N4CCN(C)CC4)cc3)c2=O)=N1` (stereo not drawn) [28S0 (105), isopropyl (Z)-5-(4-chlorophenyl)-7-ethyl-2-(4-(2-(4-methylpiperazin-1-yl)-2-oxoethoxy)benzylidene)-3-oxo-2,3-dihydro-5H-thiazolo[3,2-a]pyrimidine-6-carboxylate] came in with an EC50 above 100 µM. The IC50 in the data set with MDA-MB-231 cells lay within 20 to 50 µM.

In turn, `CNc1ccc(C2C(C(=O)OC(C)C)=C(C)N=c3s/c(=C\c4ccc(OCC(=O)N5CCN(C)CC5)cc4)c(=O)n32)cc1` (stereo not drawn) [Compound 140] yielded an EC50 on KIF2C of 50 to 100 µM. Further, the IC50 in the data set with MDA-MB-231 cells lay in the range of 20 to 50 µM.

Take `CC1=C(C(=O)OC(C)C)C(c2ccc(Cl)cc2)n2c(s/c(=C\c3ccc(OCC(=O)N4CCC(O)CC4)cc3)c2=O)=N1` (stereo not drawn) [31S0 (20), isopropyl (Z)-5-(4-chlorophenyl)-2-(4-(2-(4-hydroxypiperidin-1-yl)-2-oxoethoxy)benzylidene)-7-methyl-3-oxo-2,3-dihydro-5H-thiazolo[3,2-a]pyrimidine-6-carboxylate]: on KIF2C, the EC50 was above 100 µM. In the data set with MDA-MB-231 cells, this compound had a half-inhibitory concentration (IC50) above 50 µM.

On KIF2C, `C=CCOC(=O)C1=C(C)N=c2s/c(=C\c3ccc(OCC(=O)N4CCN(C)CC4)cc3)c(=O)n2C1c1ccc(Cl)cc1` (stereo not drawn) [30S0 (96), allyl (Z)-5-(4-chlorophenyl)-7-methyl-2-(4-(2-(4-methylpiperazin-1-yl)-2-oxoethoxy)benzylidene)-3-oxo-2,3-dihydro-5H-thiazolo[3,2-a]pyrimidine-6-carboxylate] gave an EC50 above 100 µM. Besides, in the data set on MDA-MB-231 cells, the “Cell validation (IC50)” value is given as “+ +”.

As for `CCOC(=O)C1=C(C)N=c2s/c(=C\c3ccc(OCC(=O)O)cc3)c(=O)n2[C@H]1c1ccc(Cl)cc1` [55S0 (131)], at KIF2C, the concentration for a half-maximal effect (EC50) was above 100 µM. The compound further displayed an IC50 with MDA-MB-231 cells above 50 µM.

As for `CC1=C(C(=O)OC(C)C)C(c2ccc(C)cc2)n2c(s/c(=C\c3ccc(OCC(=O)O)cc3)c2=O)=N1` (stereo not drawn) [17S0 (50), (Z)-2-(4-((6-(isopropoxycarbonyl)-7-methyl-3-oxo-5-(p-tolyl)-5H-thiazolo[3,2-a]pyrimidin-2(3H)-ylidene)methyl)phenoxy)acetic acid], the EC50 at KIF2C is above 100 µM. The compound also registered an IC50 with MDA-MB-231 cells above 50 µM.

Turning to `COC(=O)C1=C(C)N=c2s/c(=C\c3ccc(OCC(=O)N4CCN(C)CC4)cc3)c(=O)n2C1c1ccc(Cl)cc1` (stereo not drawn) [26S0 (93)], at KIF2C, the EC50 lay within 50 to 100 µM. The “Cell validation (IC50)” value with MDA-MB-231 cells is “+ +”.

Turning to `CC1=C(C(=O)OC(C)(C)C)C(c2ccc(N(C)C)cc2)n2c(s/c(=C\c3ccc(OCC(=O)N4CCC(N5CCN(C)CC5)CC4)cc3)c2=O)=N1` (stereo not drawn) [Compound 152], on KIF2C, the EC50 fell in the range of 50 to 100 µM. In the data set with MDA-MB-231 cells, this compound returned an IC50 of 20 to 50 µM.
